pIC50: −log10 of the molar value.
Assays:
SW620 cells = experiment: qPCR of single genes, SW620 cells; assay type: cell-based, human
Method: (§1) Total RNA purified from DMSO- or CXD101 treated cells was transcribed into cDNA according to the manufacturer's instructions (iScript cDNA Synthesis Kit, Bio-Rad, USA). qPCR was conducted according to the manufacturer's protocol (SsoAdvanced Universal SYBR Green Supermix, Bio-Rad Laboratories, USA) on CFX Connect Real-Time System thermocycler (Bio-Rad Laboratories, USA).

colon26 cells = experiment: qPCR of single genes, colon26 cells; assay type: cell-based, mouse
Method: as §1

colon26 tumours [1] = experiment: Immunohistochemistry of colon26 tumour sections; assay type: in vivo, Balb/c mice
Method: Tumours were harvested, embedded in paraffin blocks and cut into 5 μm sections. Antigen retrieval was achieved by incubating in sodium citrate. Sections were incubated with primary antibodies: anti-H3Ack9 (ab10812, abcam), anti-CD8 (ab203035, abcam), anti-CD4 (ab183685, abcam), anti-CD68 (GR300628, abcam), anti-CD163 (GR3232711, abcam and, anti-FoxP3 (14208S, New England Biolabs) and further stained with anti-rabbit secondary antibody (VECTASTAIN Elite ABC HRP Kit, Vector Laboratories Inc, USA) according to the manufacturer protocol. Signal was detected by DAB (3, 3-diaminobenzidine, Vector Laboratories Inc, USA) and sections were counterstained with haematoxylin (Hematoxylin solution Mayer's; pH 2.4, Merck Group, Germany). Pictures were taken using Leica DM2500 optical microscope (Leica Microsystems, Germany) and the signal was semi-quantified by means of ImageJ Fiji software (National Institutes of Health, USA, doi:10.1038/nmeth.2019).

HDAC Class 1l = experiment: HDAC Class II inhibition; assay type: biochemical; details: stated as no activity; read-out: activity against HDAC Class 1l
colon26 tumours [2] = experiment: RNAseq and qPCR of colon26 tumours; assay type: in vivo, Balb/c mice
Method: To assess gene expression in tumours that were growing in vivo, we evaluated the effect of CXD101 in the syngeneic colon26 colon carcinoma model in tumours grown subcutaneously in Balb/c mice, with CXD101 given orally for two 5-day consecutive periods and performed RNAseq on RNA purified from the tumours. Formalin-fixed paraffin-embedded samples were also prepared to assess by immunohistochemistry (IHC) the tumour micro-environment.
The effect was dose-dependent, as more tumour-inhibition occurred with a higher dose of CXD101 (50 mg/kg compared to 15 mg/kg). […] We performed RNA seq on polyA-enriched RNA prepared from the tumours. In a similar way to the analysis of colon26 in vitro, the RNAseq data was aligned to the reference M. musculus genome (mm10) with STAR aligner and analysed for differential expression. […] We then assessed whether the same genes identified in the in vitro treated colon26 cells were similarly regulated in vivo.

[3] = relative to untreated control animals

SMILES: Cc1nn(C)cc1CN1CCC(c2ccc(C(=O)Nc3ccccc3N)cc2)CC1 [CXD101, N-(2-aminophenyl)-4-(1-[(1,3-dimethyl-1H-pyrazol-4-yl)methyl]piperidin-4-yl)benzamide]
- expression of HLA-B, HLA-F, HLA-DPA1, HLA-DQB1, CTLA4, CDKN1A, TIMP3 (SW620 cells): increases expression
- expression of PHGDH, BCL2L15 (SW620 cells): decreases
- expression of REPIN1 (SW620 cells): no effect
- expression of Ctla4, H2-D1, Tnfsrf8 (colon26 cells): no effects
- expression of H2-DMb1, H2-Eb1, H2-Dma, Ereg, Timp3, Ccl9, Cc20, II33, Rab3b (colon26 cells): increased expression
- expression of H2-T3 (colon26 cells): decreased
- CD68 macrophages (colon26 tumours [1]; compared to untreated animals): reduced
- CD163 macrophages (colon26 tumours [1]; compared to untreated animals): reduced
- change in Tregs (FoxP3) (colon26 tumours [1]; mouse, in vivo): quite modest
- level of CD4 lymphocytes in tumour (colon26 tumours [1]; [3]): significant increase
- level of CD8 lymphocytes in tumour (colon26 tumours [1]; [3]): significant increase
- nuclear H3K9 acetylation (colon26 tumours [1]; treated vs untreated animals): increased levels
- pIC50 (HDAC Class 1l): ≤ 5.60
- expression of Ccl20, Tnfsrf8 (colon26 tumours [2]; colon26 tumours, qPCR): no effects
- expression of H2-DMb1, H2-Eb1, H2-Dmb1, H2-T3, Ereg, Timp3, Ctla4, H2-D1, Ccl9, 1133 (colon26 tumours [2]; colon26 tumours, qPCR): increased expression
- expression of Rab3b (colon26 tumours [2]; colon26 tumours, qPCR): decreased
- number of DEGs in tumours in vivo (colon26 tumours [2]; log 2 FC >1 and FDR <1%): 1141

— US12453725B2, “Treatment of inflammatory disease” (Celleron Therapeutics Limited, priority 2019, dated 2025)
